Results from US9763998B2, “Serpins: methods of therapeutic β-cell regeneration and function” (Joslin Diabetes Center, Inc., priority 2013, dated 2017).

Experiments:
[1] = system: human (EndoC-βH1) β-cells; assay: Ki67 positive human β-cells (EndoC-βH1) with Sivelestat; format: cell-based; conditions: 100 μg/ml; compared to non-treated cells
[2] = system: freshly isolated primary mouse islets (β-cells); assay: Primary mouse islet β-cell proliferation by Ki67 immunofluorescent staining (SerpinB1, ovalbumin, Sivelestat); format: cell-based
Text: To test whether SerpinB1 is a β-cell growth factor, we cultured freshly isolated primary mouse islets in presence of various doses of recombinant human SerpinB1 or ovalbumin (SerpinB14) and evaluated β-cell proliferation by Ki67 immunofluorescent staining (known to those of ordinary skill in the art). […] A major substrate of SerpinB1 is neutrophil elastase. To investigate whether the proliferative action of SerpinB1 is mediated by antagonizing neutrophil elastase activity, we assessed the ability of the neutrophil elastase inhibitor, Sivelestat (Sivelestat is the International Nonproprietary Name (INN) as given by the World Health Organization (WHO); the chemical name is: N-{2-[({4-[(2,2-dimethylpropanoyl)oxy]phenyl}sulfonyl)amino]benzoyl}glycine), to stimulate islet β-cell proliferation in vitro.
In all experiments, cell counting was manually performed in a blinded fashion by a single observer. BrdU+ or Ki67+β cells were assessed by immunofluorescence microscopy. Insulin+ cells showing nuclear DAPI staining were considered as β cells. Insulin+ cells showing nuclear colocalized staining for DAPI+ and Ki67+ (or BrdU+) were counted as proliferating β cells. The double-positive cells (Ins+/BrdU+ or Ins+/Ki67+) were confirmed in randomly selected cells in all experiments by confocal microscopy.

[3] = 1 μg/ml, SerpinB1 compared to islets cultured at a similar concentration of ovalbumin

Molecule | number of Ki67 positive β-cells [1] | number of proliferating insulin+ cells ([2]; higher doses (e.g. 10 and 50 μg/ml)) | islet β-cell proliferation in vitro ([2]; low doses (1 and 5 μg/ml), FIG. 12) | Ki67+ insulin+ cells (β-cell proliferation) [2, 3] | Ki67+ insulin+ cells (β-cell proliferation) ([2]; isolated mouse islets cultured with various doses of recombinant SerpinB1)
CC(C)(C)C(=O)Oc1ccc(S(=O)(=O)Nc2ccccc2C(=O)NCC(=O)O)cc1 [Sivelestat, N-{2-[({4-[(2,2-dimethylpropanoyl)oxy]phenyl}sulfonyl)amino]benzoyl}glycine] | increased | substantial increase | do not enhance β-cell proliferation | – | –
ovalbumin: ovalbumin (SerpinB14), control protein for SerpinB1 in islet culture | – | – | – | normal low β-cell proliferation | –
SerpinB1: 42 kD serine peptidase inhibitor protein regulating neutrophil proteases; used as recombinant human SerpinB1 (protein, UniProt P30740 1-379, looked up) Leukocyte elastase inhibitor: MEQLSSANTRFALDLFLALSENNPAGNIFISPFSISSAMAMVFLGTRGNTAAQLSKTFHFNTVEEVHSRFQSLNADINKRGASYILKLANRLYGEKTYNFLPEFLVSTQKTYGADLASVDFQHASEDARKTINQWVKGQTEGKIPELLASGMVDNMTKLVLVNAIYFKGNWKDKFMKEATTNAPFRLNKKDRKTVKMMYQKKKFAYGYIEDLKCRVLELPYQGEELSMVILLPDDIEDESTGLKKIEEQLTLEKLHEWTKPENLDFIEVNVSLPRFKLEESYTLNSDLARLGVQDLFNSSKADLSGMSGARDIFISKIVHKSFVEVNEEGTEAAAATAGIATFCMLMPEENFTADHPFLFFIRHNSSGSILFLGRFSSP | – | – | – | reached statistical significance | dose-dependent increase
